Holding throughout (format): in vivo
Test [1] has as its system parent elite stiff stalk inbred corn. The experiment in a line: Preemergence herbicide application in greenhouse: fresh shoot weight and visual injury. Conditions: for pest or weed control at 200 g/ha: Zea mays, pre-emergence, 672 h, read-out: % Visual Injury; for Fresh Weight: fresh shoots weighed 4 weeks after treatment, untreated 36.7 g.
The test system of test [2] is Heterozygous GAT-HRA corn. The description is as above. To be noted: for pest or weed control at 200 g/ha: Zea mays, pre-emergence, 672 h, read-out: % Visual Injury; for Fresh Weight: fresh shoots weighed 4 weeks after treatment, untreated 47.0 g.
Test [3] deals with Heterozygous GAT-HRA corn. The experiment in a line: Postemergence herbicide application in greenhouse: fresh shoot weight and visual injury. To be noted: for pest or weed control at 200 g/ha: Zea mays, post-emergence, read-out: % Visual Injury; for Fresh Weight: weighed 2 weeks after treatment, untreated 98.8 g.
Test [4] concerns parent elite stiff stalk inbred corn. The test is described as above. To be noted: for pest or weed control at 200 g/ha: Zea mays, post-emergence, read-out: % Visual Injury; for Fresh Weight: weighed 2 weeks after treatment, untreated 76.4 g.
The mark [5] stands for this setting: preemergence, 200 g/ha, 0% no injury, 100% plant death, mean of four replications.
Setting [6] is: preemergence, 200 g/ha, mean of four replications.
Where [7] appears, read: postemergence, 200 g/ha (glyphosate 3472 g ae/ha, glufosinate ammonium 1870 g/ha), 0% no injury, 100% plant death, mean of four replications.
[8] abbreviates: postemergence, 200 g/ha (glyphosate 3472 g ae/ha, glufosinate ammonium 1870 g/ha), mean of four replications.

The structures appear in SMILES notation.

For `COc1cc(OC)nc(NC(=O)NS(=O)(=O)N(C)S(C)(=O)=O)n1` [Amidosulfuron], the pest or weed control at 200 g/ha is 97% in test [1] (setting [5]), 25% in test [2] (setting [5]), 8% in test [3] (setting [7]) and 71% in test [4] (setting [7]). Besides, the “Fresh Weight” value in test [1] (setting [6]) was found to be 14.2 g; in test [2] (setting [6]), 47.7 g; in test [3] (setting [8]), 107.4 g; in test [4] (setting [8]) it was 32.0 g.
Turning to `COc1cc(OC)nc(NC(=O)NS(=O)(=O)c2c(-c3nnn(C)n3)cnn2C)n1` [Azimsulfuron], the pest or weed control at 200 g/ha in test [1] (setting [5]) was determined as 100%; in test [2] (setting [5]), 40%; in test [3] (setting [7]), 20%; in test [4] (setting [7]), 100%. The “Fresh Weight” value in test [1] (setting [6]) is recorded as 0.0 g; in test [2] (setting [6]), 49.1 g; in test [3] (setting [8]) it was 87.9 g; in test [4] (setting [8]), 1.5 g.
In the case of `COC(=O)c1ccccc1CS(=O)(=O)NC(=O)Nc1nc(OC)cc(OC)n1` [Bensulfuron-methyl], the pest or weed control at 200 g/ha is 23% in test [1] (setting [5]), 10% in test [2] (setting [5]), 14% in test [3] (setting [7]) and 93% in test [4] (setting [7]). The “Fresh Weight” value in test [1] (setting [6]) came out at 28.4 g; in test [2] (setting [6]), 39.9 g; in test [3] (setting [8]), 103.3 g; in test [4] (setting [8]) it was 9.0 g.
For `CCOc1nc(F)cc2nc(S(=O)(=O)Nc3c(Cl)cccc3C(=O)OC)nn12` [Chloransulam-methyl], the “% Visual Injury” value in test [1] (setting [5]) was 3%; in test [2] (setting [5]), 3%; in test [3] (setting [7]), 3%; in test [4] (setting [7]), 96%. The “Fresh Weight” value was 5.5 g in test [1] (setting [6]), 44.9 g in test [2] (setting [6]), 104.4 g in test [3] (setting [8]) and 6.8 g in test [4] (setting [8]).
`COc1nc(C)nc(NC(=O)NS(=O)(=O)c2ccccc2Cl)n1` [Chlorsulfuron]: the pest or weed control at 200 g/ha in test [1] (setting [5]) amounted to 100%; in test [2] (setting [5]), 33%; in test [3] (setting [7]), 13%; in test [4] (setting [7]) it was 100%. The “Fresh Weight” value in test [1] (setting [6]) is on record as 0.0 g; in test [2] (setting [6]) it was 48.4 g; in test [3] (setting [8]), 105.2 g; in test [4] (setting [8]), 1.7 g.
Regarding `CCOc1nc(NC)nc(NC(=O)NS(=O)(=O)c2ccccc2C(=O)OC)n1` [Ethametsulfuron-methyl], the pest or weed control at 200 g/ha is 100% in test [1], 88% in test [2], 6% in test [3] ([…]) and 96% in test [4] ([…]). The “Fresh Weight” value came out at 1.6 g in test [1] (setting [6]), 50.1 g in test [2] (setting [6]), 98.0 g in test [3] (setting [8]) and 5.6 g in test [4] (setting [8]).
As for `CCOc1ccccc1OS(=O)(=O)NC(=O)Nc1nc(OC)cc(OC)n1` [Ethoxysulfuron], the pest or weed control at 200 g/ha was 63% in test [1] (setting [5]), 25% in test [2] (setting [5]), 15% in test [3] (setting [7]) and 88% in test [4] (setting [7]). The “Fresh Weight” value was 28.1 g in test [1] (setting [6]), 40.0 g in test [2] (setting [6]), 79.3 g in test [3] (setting [8]) and 24.3 g in test [4] (setting [8]).
`COc1nn(C(=O)NS(=O)(=O)c2ccccc2OC(F)(F)F)c(=O)n1C` [Flucarbazone Na^+, Flucarbazone]: the “% Visual Injury” value in test [1] (setting [5]) is 100%; in test [2] (setting [5]), 40%; in test [3] (setting [7]), 14%; in test [4] (setting [7]), 100%. Besides, the “Fresh Weight” value was determined as 0.0 g in test [1] (setting [6]), 48.8 g in test [2] (setting [6]), 86.0 g in test [3] (setting [8]) and 3.1 g in test [4] (setting [8]).
On to `Cc1ccn2nc(S(=O)(=O)Nc3c(F)cccc3F)nc2n1` [Flumetsulam], for which the pest or weed control at 200 g/ha amounted to 13% in test [1] (setting [5]), 13% in test [2] (setting [5]), 3% in test [3] (setting [7]) and 85% in test [4] (setting [7]). Besides, the “Fresh Weight” value amounted to 24.6 g in test [1] (setting [6]), 39.1 g in test [2] (setting [6]), 103.8 g in test [3] (setting [8]) and 12.8 g in test [4] (setting [8]).
On to `COC(=O)c1ccc(C(F)(F)F)nc1S(=O)(=O)NC(=O)Nc1nc(OC)cc(OC)n1` [Flupyrsulfuron-methyl Na^+, Flupyrsulfuron-methyl], for which the “% Visual Injury” value is listed as 87% in test [1] (setting [5]), 90% in test [2] (setting [5]), 4% in test [3] (setting [7]) and 95% in test [4] (setting [7]). For the same compound, the “Fresh Weight” value stood at 23.6 g in test [1] (setting [6]), 45.8 g in test [2] (setting [6]), 95.5 g in test [3] (setting [8]) and 5.2 g in test [4] (setting [8]).
On to `COc1cc(OC)nc(NC(=O)NS(=O)(=O)c2cc(NC=O)ccc2C(=O)N(C)C)n1` [Foramsulfuron], for which the pest or weed control at 200 g/ha in test [1] (setting [5]) came out at 5%; in test [2] (setting [5]) it was 7%; in test [3] (setting [7]) it was 8%; in test [4] (setting [7]), 28%. In addition, the “Fresh Weight” value in test [1] (setting [6]) is 30.6 g; in test [2] (setting [6]), 39.1 g; in test [3] (setting [8]) it was 80.6 g; in test [4] (setting [8]), 62.5 g.
Regarding `CP(=O)(O)CCC(N)C(=O)O` (stereo not shown) [Glufosinate ammonium], the pest or weed control at 200 g/ha in test [3] ([…]) was 1%; in test [4] ([…]) it was 99%. Also, the results for the “Fresh Weight” value in test [3] (setting [8]) and in test [4] (setting [8]) were 112.3 g and 2.4 g, respectively.
As to `COC(=O)c1c(Cl)nn(C)c1S(=O)(=O)NC(=O)Nc1nc(OC)cc(OC)n1` [Halosulfuron-methyl], the pest or weed control at 200 g/ha in test [1] was found to be 30%; in test [2] it was 15%; in test [3] ([…]), 8%; in test [4] ([…]) it was 14%. For the same compound, the “Fresh Weight” value is on record as 28.9 g in test [1] (setting [6]), 40.1 g in test [2] (setting [6]), 94.5 g in test [3] (setting [8]) and 58.1 g in test [4] (setting [8]).
Regarding `COCc1cnc(C2=NC(C)(C(C)C)C(=O)N2)c(C(=O)O)c1` (stereo not shown) [Imazamox], the pest or weed control at 200 g/ha is 99% in test [1] (setting [5]), 13% in test [2] (setting [5]), 4% in test [3] (setting [7]) and 100% in test [4] (setting [7]). Besides, the “Fresh Weight” value was determined as 0.8 g in test [1] (setting [6]), 47.5 g in test [2] (setting [6]), 90.9 g in test [3] (setting [8]) and 2.2 g in test [4] (setting [8]).
With `CC(C)C1(C)N=C(c2nc3ccccc3cc2C(=O)O)NC1=O` (stereo not shown) [Imazaquin], the pest or weed control at 200 g/ha came out at 99% in test [1], 28% in test [2], 2% in test [3] ([…]) and 100% in test [4] ([…]). For the same compound, the “Fresh Weight” value in test [1] (setting [6]) turned out to be 1.5 g; in test [2] (setting [6]), 45.4 g; in test [3] (setting [8]), 113.3 g; in test [4] (setting [8]) it was 4.4 g.
Take `CCc1cnc(C2=NC(C)(C(C)C)C(=O)N2)c(C(=O)O)c1` (stereo not shown) [Imazethapyr]: the pest or weed control at 200 g/ha in test [1] (setting [5]) was determined as 69%; in test [2] (setting [5]) it was 20%; in test [3] (setting [7]) it was 9%; in test [4] (setting [7]), 97%. The “Fresh Weight” value worked out at 24.4 g in test [1] (setting [6]), 50.0 g in test [2] (setting [6]), 93.4 g in test [3] (setting [8]) and 6.4 g in test [4] (setting [8]).
Take `COC(=O)c1ccc(I)cc1S(=O)(=O)NC(=O)Nc1nc(C)nc(OC)n1` [Iodosulfuron-methyl Na^+, Iodosulfuron-methyl]: the “% Visual Injury” value in test [1] (setting [5]) is recorded as 92%; in test [2] (setting [5]), 5%; in test [3] (setting [7]), 1%; in test [4] (setting [7]), 100%. In addition, the “Fresh Weight” value in test [1] (setting [6]) worked out at 24.4 g; in test [2] (setting [6]) it was 52.5 g; in test [3] (setting [8]) it was 95.0 g; in test [4] (setting [8]), 3.5 g.
As for `COc1cc(OC)nc(NC(=O)NS(=O)(=O)c2ncccc2C(=O)N(C)C)n1` [Nicosulfuron], the pest or weed control at 200 g/ha stood at 43% in test [1] (setting [5]), 0% in test [2] (setting [5]), 0% in test [3] (setting [7]) and 24% in test [4] (setting [7]). Further, the “Fresh Weight” value was determined as 33.6 g in test [1] (setting [6]), 50.3 g in test [2] (setting [6]), 94.7 g in test [3] (setting [8]) and 62.7 g in test [4] (setting [8]).
Take `COC(=O)c1ccccc1S(=O)(=O)NC(=O)Nc1nc(OC(F)F)cc(OC(F)F)n1` [Primisulfuron-methyl]: the pest or weed control at 200 g/ha came to 68% in test [1], 7% in test [2], 5% in test [3] ([…]) and 75% in test [4] ([…]). Moreover, the “Fresh Weight” value in test [1] (setting [6]) amounted to 19.5 g; in test [2] (setting [6]) it was 37.9 g; in test [3] (setting [8]), 101.0 g; in test [4] (setting [8]), 16.6 g.

The values are drawn from patent US7803992B2, “Methods and compositions for expressing an herbicide-tolerant polynucleotide” (Pioneer Hi-Bred International, Inc., priority 2005, dated 2010).
